Measurements: EP0378317A2, “Microbial transformation product of L-679,934” (Merck & Co., Inc., priority 1989, dated 1990)
“Also recorded” adds a separate entry of the source. Where two headings read alike, the source gives them in different places.

Experiments:
[1] = Physical characteristics of the fermentation product; assay type: physicochemical; details: methanol
Text: White amorphous powder • 2. […] Molecular weight of 789, as determined by FAB mass spectroscopy and is consistent with the assigned molecular structure in Figure 1.

mouse T lymphocytes = experiment: T-cell proliferation assay (ionomycin plus PMA induced T-cell stimulation, tritiated thymidine uptake); assay type: cell-based; details: for IC50: read-out: IC₅₀
Protocol: The principle of this assay is to measure the proliferation of mouse T lymphocytes stimulated with the combination of ionomycin plus PMA. A positive sample in this assay will inhibit T-cell proliferation, as indicated by reduced tritiated thymidine uptake. […] Cells were pelleted by centrifugation at 1500 rpm for 8 minutes. Contaminating red cells were removed by treating the pellet with ammonium chloride lysing buffer (GIBCO) for 2 minutes at 4°C. Cold medium was added and cells were again centrifuged at 1500 rpm for 8 minutes. T lymphocytes were then isolated by separation of the cell suspension on nylon wool columns as follows: Nylon wool columns were prepared by packing approximately 4 grams of washed and dried nylon wool into 20 ml plastic syringes. The columns were sterilized by autoclaving at 250°F for 30 minutes. Nylon wool columns were wetted with warm (37°C) culture medium and rinsed with the same medium. Washed spleen cells resuspended in warm medium were slowly applied to the nylon wool. The columns were then incubated in an upright position at 37°C for 1 hour. Non-adherent T lymphocytes were eluted from the columns with warm culture medium and the cell suspensions were spun as above. […] The cell suspension was immediately distributed into 96 well flat-bottom microculture plates (Costar) at 200 µl/well. […] The proliferation of T lymphocytes was assessed by measurement of tritiated thymidine incorporation. After 44 hours of culturing, the cells were pulse-labelled with 2 µCi/well of tritiated thymidine (NEN, Cambridge, MA). After another 4 hours of incubation, cultures were harvested on glass fiber filters using a multiple sample harvester. Radioactivity of filter discs corresponding to individual wells was measured by standard liquid scintillation counting methods (Betacounter). Mean counts per minute of replicate wells were calculated and the results expressed as percent inhibition of tritiated thymidine uptake (proliferation) as follows: [formula]

Solubility [1] | SMILES | IC50 (mouse T lymphocytes; Mus musculus, T-lymphocyte, inhibition of T-cell proliferation, this experiment, same value in molar terms) | IC50 (mouse T lymphocytes; Mus musculus, T-lymphocyte, inhibition of T-cell proliferation, this experiment) | IC50 (mouse T lymphocytes; Mus musculus, T-lymphocyte, range generally found) | inhibition at 0.00058 µg/mL (mouse T lymphocytes; Mus musculus, T-lymphocyte, L-683,519 0.58 ng/ml, harvest at 48 hours) | inhibition at 0.00087 µg/mL (mouse T lymphocytes; Mus musculus, T-lymphocyte, L-683,519 0.87 ng/ml, harvest at 48 hours) | inhibition at 0.0013 µg/mL (mouse T lymphocytes; Mus musculus, T-lymphocyte, L-683,519 1.3 ng/ml, harvest at 48 hours) | inhibition at 0.0019 µg/mL (mouse T lymphocytes; Mus musculus, T-lymphocyte, L-683,519 1.9 ng/ml, harvest at 48 hours) | inhibition at 0.0029 µg/mL (mouse T lymphocytes; Mus musculus, T-lymphocyte, L-683,519 2.9 ng/ml, harvest at 48 hours) | inhibition at 0.0044 µg/mL (mouse T lymphocytes; Mus musculus, T-lymphocyte, L-683,519 4.4 ng/ml, harvest at 48 hours) | inhibition at 0.0066 µg/mL (mouse T lymphocytes; Mus musculus, T-lymphocyte, L-683,519 6.6 ng/ml, harvest at 48 hours) | inhibition at 0.0099 µg/mL (mouse T lymphocytes; Mus musculus, T-lymphocyte, L-683,519 9.9 ng/ml, harvest at 48 hours) | inhibition at 0.015 µg/mL (mouse T lymphocytes; Mus musculus, T-lymphocyte, L-683,519 15.0 ng/ml, harvest at 48 hours) | inhibition at 0.022 µg/mL (mouse T lymphocytes; Mus musculus, T-lymphocyte, L-683,519 22.0 ng/ml, harvest at 48 hours) | inhibition at 0.033 µg/mL (mouse T lymphocytes; Mus musculus, T-lymphocyte, L-683,519 33.0 ng/ml, harvest at 48 hours) | inhibition at 0.05 µg/mL (mouse T lymphocytes; Mus musculus, T-lymphocyte, L-683,519 50.0 ng/ml, ionomycin 250 ng/ml + PMA 10 ng/ml, ³H-thymidine pulse 4 hours, harvest at 48 hours) | Inhibition of proliferation after addition of IL-2 (mouse T lymphocytes; addition of 50 units/ml. of recombinant human IL-2) | inhibition of T-cell activation (immunosuppressive activity) (mouse T lymphocytes; result in words) | inhibition at 0.01 µg/mL (mouse T lymphocytes; Mus musculus, T-lymphocyte, 48 h)
Solubility in methanol | C=CCC1C=C(C)CC(C)CC(OC)C(O)C2CC(C)C(O)(O2)C(=O)C(=O)N2CCCCC2C(=O)OC(C(C)=CC2CCC(O)C(OC)C2)C(C)C(O)CC1=O [L-683,519] | 2.2 nM | 1.7 ng/mL | 2 to 4 nM | 0% | 0% | 30% | 57% | 81% | 93% | 97% | 99% | 99% | 99% | 99% | 99% | 4. Inhibition of proliferation was reversed by the addition of 50 units/ml. of recombinant human IL-2. | positive inhibition of T-cell activation; also recorded: positive immunosuppressive activity | –
– | C=CC[C@@H]1/C=C(\C)C[C@H](C)C[C@H](OC)[C@H]2O[C@@](O)(C(=O)C(=O)N3CCCC[C@H]3C(=O)O[C@H](/C(C)=C/[C@@H]3CC[C@@H](O)[C@H](OC)C3)[C@H](C)[C@@H](O)CC1=O)[C@H](C)C[C@@H]2OC [L-679,934] | – | – | – | – | – | – | – | – | – | – | – | – | – | – | – | – | – | 99%
